System: primary HSCs

Cc1sc2c(c1C)C(c1ccc(Cl)cc1)=N[C@@H](CC(=O)OC(C)(C)C)c1nnc(C)n1-2 [JQ1, (S)-tert-butyl 2-(4-(4-chlorophenyl)-2,3,9-trimethyl-6H-thieno[3,2-f][1,2,4]triazolo[4,3-a][1,4]diazepin-6-yl)acetate]
Pla2r1 value_2 (gene Pla2r1, mRNA-Seq, sample Day_6_JQ1): 26.6778 | Plat value_2 (gene Plat, mRNA-Seq, sample Day_6_JQ1): 141.636 | Prelp value_2 (gene Prelp, mRNA-Seq, sample Day_6_JQ1): 1220.99 | Prss35 value_2 (gene Prss35, mRNA-Seq, sample Day_6_JQ1): 23.844 | Ptms value_2 (gene Ptms, mRNA-Seq, sample Day_6_JQ1): 627.919 | Ptrf value_2 (gene Ptrf, mRNA-Seq, sample Day_6_JQ1): 259.645 | Qpct value_2 (gene Qpct, mRNA-Seq, sample Day_6_JQ1): 87.1308 | Rad51 value_2 (gene Rad51, mRNA-Seq, sample Day_6_JQ1): 12.1115 | Rbp1 value_2 (gene Rbp1, mRNA-Seq, sample Day_6_JQ1): 218.378 | Reck value_2 (gene Reck, mRNA-Seq, sample Day_6_JQ1): 17.3878 | Rrm2 value_2 (gene Rrm2, mRNA-Seq, sample Day_6_JQ1): 68.04 | Rtn1 value_2 (gene Rtn1, mRNA-Seq, sample Day_6_JQ1): 47.263 | S100a4 value_2 (gene S100a4, mRNA-Seq, sample Day_6_JQ1): 250.226 | Sbsn value_2 (gene Sbsn, mRNA-Seq, sample Day_6_JQ1): 16.3231 | Scara3 value_2 (gene Scara3, mRNA-Seq, sample Day_6_JQ1): 43.4366 | Sdpr value_2 (gene Sdpr, mRNA-Seq, sample Day_6_JQ1): 94.9074 | Serpini1 value_2 (gene Serpini1, mRNA-Seq, sample Day_6_JQ1): 12.3234 | Sesn3 value_2 (gene Sesn3, mRNA-Seq, sample Day_6_JQ1): 27.3512 | Shcbp1 value_2 (gene Shcbp1, mRNA-Seq, sample Day_6_JQ1): 11.9996 | Shisa2 value_2 (gene Shisa2, mRNA-Seq, sample Day_6_JQ1): 144.995 | Slc2a8 value_2 (gene Slc2a8, mRNA-Seq, sample Day_6_JQ1): 16.1545 | Slc9a3r1 value_2 (gene Slc9a3r1, mRNA-Seq, sample Day_6_JQ1): 161.158 | Snai2 value_2 (gene Snai2, mRNA-Seq, sample Day_6_JQ1): 23.1888 | Spag5 value_2 (gene Spag5, mRNA-Seq, sample Day_6_JQ1): 9.803 | Spc25 value_2 (gene Spc25, mRNA-Seq, sample Day_6_JQ1): 27.2563 | Svep1 value_2 (gene Svep1, mRNA-Seq, sample Day_6_JQ1): 86.2113 | Tbx20 value_2 (gene Tbx20, mRNA-Seq, sample Day_6_JQ1): 54.5866 | Tcf19 value_2 (gene Tcf19, mRNA-Seq, sample Day_6_JQ1): 43.53 | Timp2 value_2 (gene Timp2, mRNA-Seq, sample Day_6_JQ1): 329.559 | Top2a value_2 (gene Top2a, mRNA-Seq, sample Day_6_JQ1): 41.0029 | Upk1b value_2 (gene Upk1b, mRNA-Seq, sample Day_6_JQ1): 78.8086 | Wdr6 value_2 (gene Wdr6, mRNA-Seq, sample Day_6_JQ1): 56.5942 | Zwilch value_2 (gene Zwilch, mRNA-Seq, sample Day_6_JQ1): 13.4294 | 3110003A17Rik value_2 (mRNA-Seq expression, Day_6_JQ1): 104.778 | 6330406I15Rik value_2 (mRNA-Seq expression, Day_6_JQ1): 30.5279 | 9030617O03Rik value_2 (mRNA-Seq expression, Day_6_JQ1): 9.249 | AI597468 value_2 (mRNA-Seq expression, Day_6_JQ1): 20.0206 | Adam12 value_2 (mRNA-Seq expression, Day_6_JQ1): 22.1402 | Adora2b value_2 (mRNA-Seq expression, Day_6_JQ1): 12.9207 | Aga value_2 (mRNA-Seq expression, Day_6_JQ1): 42.0303 | Ak3 value_2 (mRNA-Seq expression, Day_6_JQ1): 27.7827 | Anxa6 value_2 (mRNA-Seq expression, Day_6_JQ1): 122.139 | Arhgef10 value_2 (mRNA-Seq expression, Day_6_JQ1): 5.987 | Ass1 value_2 (mRNA-Seq expression, Day_6_JQ1): 41.1545 | Atp8b2 value_2 (mRNA-Seq expression, Day_6_JQ1): 19.4721 | Btg2 value_2 (mRNA-Seq expression, Day_6_JQ1): 38.7075 | C1qtnf1 value_2 (mRNA-Seq expression, Day_6_JQ1): 19.1118 | C1qtnf6 value_2 (mRNA-Seq expression, Day_6_JQ1): 58.5752 | Cav1 value_2 (mRNA-Seq expression, Day_6_JQ1): 17.5128 | Ccdc104 value_2 (mRNA-Seq expression, Day_6_JQ1): 19.7014 | Ccdc109b value_2 (mRNA-Seq expression, Day_6_JQ1): 9.232 | Cdc42bpa value_2 (mRNA-Seq expression, Day_6_JQ1): 16.5997 | Cdkn2b value_2 (mRNA-Seq expression, Day_6_JQ1): 41.7085 | Chst14 value_2 (mRNA-Seq expression, Day_6_JQ1): 18.8651 | Ckap4 value_2 (mRNA-Seq expression, Day_6_JQ1): 147.656 | Cnn2 value_2 (mRNA-Seq expression, Day_6_JQ1): 222.556 | Col5a1 value_2 (mRNA-Seq expression, Day_6_JQ1): 106.143 | Col5a2 value_2 (mRNA-Seq expression, Day_6_JQ1): 372.729 | Col6a1 value_2 (mRNA-Seq expression, Day_6_JQ1): 47.4496 | Col8a1 value_2 (mRNA-Seq expression, Day_6_JQ1): 69.7251 | Cpe value_2 (mRNA-Seq expression, Day_6_JQ1): 54.9734 | Cpz value_2 (mRNA-Seq expression, Day_6_JQ1): 4.843 | Csrp1 value_2 (mRNA-Seq expression, Day_6_JQ1): 294.801 | Cygb value_2 (mRNA-Seq expression, Day_6_JQ1): 51.8956 | Cyp51 value_2 (mRNA-Seq expression, Day_6_JQ1): 13.4382 | Dcaf12l1 value_2 (mRNA-Seq expression, Day_6_JQ1): 3.456 | Dlg4 value_2 (mRNA-Seq expression, Day_6_JQ1): 9.101 | Dnajb4 value_2 (mRNA-Seq expression, Day_6_JQ1): 44.3814 | Dst value_2 (mRNA-Seq expression, Day_6_JQ1): 16.9506 | Eda2r value_2 (mRNA-Seq expression, Day_6_JQ1): 23.0105 | Efemp2 value_2 (mRNA-Seq expression, Day_6_JQ1): 169.818 | Epdr1 value_2 (mRNA-Seq expression, Day_6_JQ1): 7.336 | Evc2 value_2 (mRNA-Seq expression, Day_6_JQ1): 7.337 | Fam114a1 value_2 (mRNA-Seq expression, Day_6_JQ1): 29.7898 | Fam115c value_2 (mRNA-Seq expression, Day_6_JQ1): 4.611 | Fam149a value_2 (mRNA-Seq expression, Day_6_JQ1): 4.452 | Fam189b value_2 (mRNA-Seq expression, Day_6_JQ1): 7.431 | Fgf18 value_2 (mRNA-Seq expression, Day_6_JQ1): 10.4873 | Fhl2 value_2 (mRNA-Seq expression, Day_6_JQ1): 40.1985 | Flnc value_2 (mRNA-Seq expression, Day_6_JQ1): 24.3492 | Fzd2 value_2 (mRNA-Seq expression, Day_6_JQ1): 16.4688 | Gabra3 value_2 (mRNA-Seq expression, Day_6_JQ1): 14.8418 | Gas6 value_2 (mRNA-Seq expression, Day_6_JQ1): 41.2636 | Gm5424 value_2 (mRNA-Seq expression, Day_6_JQ1): 5.331 | Gpx8 value_2 (mRNA-Seq expression, Day_6_JQ1): 110.547 | Grhpr value_2 (mRNA-Seq expression, Day_6_JQ1): 13.8722 | Gria3 value_2 (mRNA-Seq expression, Day_6_JQ1): 4.78 | Igfbp3 value_2 (mRNA-Seq expression, Day_6_JQ1): 483.66 | Igsf8 value_2 (mRNA-Seq expression, Day_6_JQ1): 44.7273 | Il1rap value_2 (mRNA-Seq expression, Day_6_JQ1): 20.7058 | Inpp5a value_2 (mRNA-Seq expression, Day_6_JQ1): 33.3765 | Isoc2b value_2 (mRNA-Seq expression, Day_6_JQ1): 4.059 | Kif1a value_2 (mRNA-Seq expression, Day_6_JQ1): 6.57 | LOC100616095 value_2 (mRNA-Seq expression, Day_6_JQ1): 13.992 | Lama2 value_2 (mRNA-Seq expression, Day_6_JQ1): 9.263 | Lars2 value_2 (mRNA-Seq expression, Day_6_JQ1): 12.6226 | Lpp value_2 (mRNA-Seq expression, Day_6_JQ1): 24.9042 | Lrig3 value_2 (mRNA-Seq expression, Day_6_JQ1): 4.218 | Lrrn4 value_2 (mRNA-Seq expression, Day_6_JQ1): 11.7356 | Maged2 value_2 (mRNA-Seq expression, Day_6_JQ1): 60.8426 | Mboat7 value_2 (mRNA-Seq expression, Day_6_JQ1): 28.6438 | Meg3 value_2 (mRNA-Seq expression, Day_6_JQ1): 15.1775 | Mlec value_2 (mRNA-Seq expression, Day_6_JQ1): 92.0676 | Mmgt2 value_2 (mRNA-Seq expression, Day_6_JQ1): 10.425 | Mmp2 value_2 (mRNA-Seq expression, Day_6_JQ1): 73.6315 | Mpp2 value_2 (mRNA-Seq expression, Day_6_JQ1): 4.639

Source: patent US20180325914A1, “INCREASING STORAGE OF VITAMIN A, VITAMIN D AND/OR LIPIDS” (Salk Institute for Biological Studies, priority 2014, published 2018)
